Values after ≈ are worked out from the molar mass of the structure shown.
Test system: E. coli
Test: Bacterial susceptibility testing, MIC by broth microdilution (CLSI)
Details: Escherichia coli, read-out: E. coli MIC, broth microdilution, 35° C., 18-24 h

| SMILES | MIC |
| --- | --- |
| COC1CN(Cc2ccc(C#Cc3ccc([C@@H](CNCC(F)F)Cc4nc[nH]c(=O)c4O)c(F)c3)cc2)C1 (single isomer, unassigned) [Compound 282] | < 1 µg/mL |
| Cc1nccn1CC(Cc1nc[nH]c(=O)c1O)c1ccc(C#Cc2ccc(CN3CCOCC3)cc2)cc1 (stereo not drawn) [Compound 305] | < 1 µg/mL |
| O=C1N(C(CO)Cc2nc[nH]c(=O)c2O)Cc2cc(-c3ccc(CCN4CCOCC4)cc3)cn21 (stereo not drawn) [Compound 203] | 1 to 8 µg/mL (≈ 2.09 to 16.7 µM) |
| O=C(O)CN1CC[C@@H](NCc2ccc(C#Cc3ccc(C(CO)Cc4nc[nH]c(=O)c4O)cc3)cc2)C1 (mixture of isomers) [Compound 156] | > 32 µg/mL |
| O=c1[nH]cnc(CC(CO)c2ccc(C#Cc3ccc(CNC4CCOCC4)cc3)cc2)c1O (stereo not drawn) [Compound 53] | 1 to 8 µg/mL (≈ 2.18 to 17.4 µM) |
| O=C1N(C(CO)Cc2nc[nH]c(=O)c2O)Cc2cc(C#Cc3ccc(CN4CCOCC4)cc3)cn21 (stereo not drawn) [Compound 193] | 1 to 8 µg/mL (≈ 2.04 to 16.3 µM) |
| CS(=O)(=O)N1CC[C@@H](NCc2ccc(C#Cc3ccc(C(CO)Cc4nc[nH]c(=O)c4O)cc3)cc2)C1 (single isomer, unassigned) [Compound 254] | < 1 µg/mL |
| C[C@@H](CF)NCC(Cc1nc[nH]c(=O)c1O)c1ccc(C#Cc2ccc(CCN3CCOCC3)cc2)cc1 (mixture of isomers) [Compound 294] | < 1 µg/mL |
| NC(Cc1nc[nH]c(=O)c1O)c1ccc(C#Cc2ccc(CN3CCOCC3)cc2)cc1 (stereo not drawn) [Compound 65] | < 1 µg/mL |
| O=c1[nH]cnc(CC(CN[C@H]2CCOC2)c2ccc(C#Cc3ccc(CN4CCOCC4)cc3)cc2)c1O (mixture of isomers) [Compound 166] | < 1 µg/mL |
| O=c1[nH]cnc(C[C@H](CNCC(F)F)c2ccc(C#Cc3ccc(CN4CCOCC4)cc3)cc2)c1O (single isomer, unassigned) [Compound 117] | < 1 µg/mL |
| N[C@@H]1CCN(Cc2ccc(C#Cc3ccc(C(CO)Cc4nc[nH]c(=O)c4O)cc3)cc2)C1 (mixture of isomers) [Compound 292] | 1 to 8 µg/mL |
| CS(=O)(=O)N[C@H](Cc1nc[nH]c(=O)c1O)c1ccc(C#Cc2ccc(CN3CCNC[C@H]3CO)cc2)cc1 [Compound 291] | < 1 µg/mL |
| O=c1[nH]cnc(CC(CN[C@H]2C[C@@H](F)C2)c2ccc(C#Cc3ccc(CN4CCOCC4)cc3)cc2)c1O (stereo partly drawn) [Compound 75] | < 1 µg/mL |
| O=c1[nH]cnc(CC(CNCCF)c2ccc(C#Cc3ccc(CN4CCOCC4)cc3)cc2)c1O (stereo not drawn) [Compound 6] | 1 to 8 µg/mL (≈ 2.04 to 16.3 µM) |
| NCC1CN(Cc2ccc(C#Cc3ccc(C(CO)Cc4nc[nH]c(=O)c4O)cc3)cc2)CCO1 (stereo not drawn) [Compound 258] | 1 to 8 µg/mL (≈ 2.11 to 16.9 µM) |
| O=c1[nH]cnc(CC(CNC2CC2)c2ccc(C#Cc3ccc(CN4CCOCC4)cc3)cc2)c1O (stereo not drawn) [Compound 118] | < 1 µg/mL |
| COC1CN(Cc2ccc(C#Cc3ccc([C@@H](CO)Cc4nc[nH]c(=O)c4O)cc3)cc2)C1 (single isomer, unassigned) [Compound 217] | < 1 µg/mL |
| C[C@@H](CF)NCC(Cc1nc[nH]c(=O)c1O)c1ccc(C#Cc2ccc(CN[C@@H]3CCOC3)cc2)cc1 (mixture of isomers) [Compound 108] | < 1 µg/mL |

| SMILES | MIC |
| --- | --- |
| C[C@@H](CF)NCC(Cc1nc[nH]c(=O)c1O)c1ccc(C#Cc2ccc(CNC3CCS(=O)(=O)C3)cc2)cc1 (single isomer, unassigned) [Compound 178] | 1 to 8 µg/mL (≈ 1.81 to 14.5 µM) |
| NC[C@@H]1CCCN1Cc1ccc(C#Cc2ccc(C(CO)Cc3nc[nH]c(=O)c3O)cc2)cc1 (mixture of isomers) [Compound 145] | 1 to 8 µg/mL |
| CN(C[C@@H](Cc1nc[nH]c(=O)c1O)c1ccc(C#Cc2ccc(CN3CCOCC3)cc2)cc1)C1CC1 (single isomer, unassigned) [Compound 302] | < 1 µg/mL |
| O=c1[nH]cnc(CC(CO)c2ccc(C#Cc3ccc(CNC4CC[S+]([O-])C4)cc3)cc2)c1O (stereo not drawn) [Compound 60] | 1 to 8 µg/mL (≈ 2.09 to 16.8 µM) |
| O=C(NCCF)C(Cc1nc[nH]c(=O)c1O)c1ccc(C#Cc2ccc(CN[C@H]3CCOC3)cc2)cc1 (mixture of isomers) [Compound 30] | 1 to 8 µg/mL |
| N#CC1CN(C[C@H](Cc2nc[nH]c(=O)c2O)c2ccc(C#Cc3ccc(CN4CC[C@H](C#N)C4)cc3)cc2)C1 (single isomer, unassigned) [Compound 235] | < 1 µg/mL |
| CC(CO)(Cc1nc[nH]c(=O)c1O)c1ccc(C#Cc2ccc(CN3CCOCC3)cc2)cc1 (stereo not drawn) [Compound 31] | < 1 µg/mL |
| O=c1[nH]cnc(C[C@H](CO)c2ccc(C#Cc3ccc(C(O)CO)cc3)cc2)c1O (single isomer, unassigned) [Compound 270] | 1 to 8 µg/mL (≈ 2.46 to 19.7 µM) |
| Cn1cc(C#Cc2ccc(C(CO)Cc3nc[nH]c(=O)c3O)cc2)cn1 (stereo not drawn) [Compound 197] | 8 to 32 µg/mL (≈ 22.8 to 91.3 µM) |
| O=c1[nH]cnc(C[C@H](CN2CC(O)C2)c2ccc(C#Cc3ccc(CN4CCOCC4)c(F)c3)cc2)c1O (single isomer, unassigned) [Compound 276] | 1 to 8 µg/mL (≈ 1.93 to 15.4 µM) |
| O=c1[nH]cnc(CC(CNCCO)c2ccc(C#Cc3ccc(CN4CCOCC4)cc3)cc2)c1O (stereo not drawn) [Compound 129] | 1 to 8 µg/mL (≈ 2.05 to 16.4 µM) |
| CS(=O)(=O)CCNCC(Cc1nc[nH]c(=O)c1O)c1ccc(C#Cc2ccc(CN3CCOCC3)cc2)cc1 (stereo not drawn) [Compound 128] | 1 to 8 µg/mL (≈ 1.82 to 14.5 µM) |
| CS(=O)(=O)NC(Cc1nc[nH]c(=O)c1O)c1ccc(C#Cc2ccc(CN3CCOCC3)cc2)cc1 (stereo not drawn) [Compound 289] | < 1 µg/mL |
| NCc1ccc(C#Cc2ccc(C(CO)Cc3nc[nH]c(=O)c3O)cc2)cc1 (stereo not drawn) [Compound 63] | 1 to 8 µg/mL (≈ 2.66 to 21.3 µM) |
| O=C(O)C(Cc1nc[nH]c(=O)c1O)N1Cc2cc(-c3ccc(CCN4CCOCC4)cc3)cn2C1=O (stereo not drawn) [Compound 212] | > 32 µg/mL |
| O=c1[nH]cnc(CC(CNCCF)c2ccc(C#Cc3ccn4cncc4c3)cc2)c1O (stereo not drawn) [Compound 207] | 1 to 8 µg/mL (≈ 2.32 to 18.5 µM) |
| CO[C@H]1CCN(Cc2ccc(C#Cc3ccc(C(CN[C@@H](C)CF)Cc4nc[nH]c(=O)c4O)cc3)cc2)C1 (mixture of isomers) [Compound 89] | < 1 µg/mL |
| O=c1[nH]cnc(C[C@H](CO)c2ccc(C#Cc3ccc(CN(CCO)[C@@H]4CCOC4)cc3)cc2)c1O (single isomer, unassigned) [Compound 269] | 1 to 8 µg/mL (≈ 2.04 to 16.3 µM) |

Same assay, conditions: broth microdilution, 35° C., 18-24 h

| SMILES | E. coli MIC |
| --- | --- |
| CC(=O)N1CC[C@@H](NCc2ccc(C#Cc3ccc(C(CO)Cc4nc[nH]c(=O)c4O)cc3)cc2)C1 (single isomer, unassigned) [Compound 233] | B (B: >1 μg/mL to ≤8.0 μg/mL) |
| C[C@H](CO)NCC(Cc1nc[nH]c(=O)c1O)c1ccc(C#Cc2ccc(CN3CCOCC3)cc2)cc1 (single isomer, unassigned) [Compound 171] | A (A: ≤1 μg/mL) |
| O=c1[nH]cnc(CC(CO)c2ccc(C#Cc3ccc(CN[C@H]4CCOC4)cc3)cc2)c1O (single isomer, unassigned) [Compound 10] | A (A: ≤1 μg/mL) |
| O=c1[nH]cnc(CC(CN[C@H]2C[C@@H](F)C2)c2ccc(C#Cc3ccc(CN4CCOCC4)cc3)cc2)c1O (stereo partly drawn) [Compound 77] | B (B: >1 μg/mL to ≤8.0 μg/mL) |
| COC1CN(Cc2ccc(C#Cc3ccc(C(Cc4nc[nH]c(=O)c4O)CN4CC(F)C4)cc3)cc2)C1 (stereo not drawn) [Compound 160] | A (A: ≤1 μg/mL) |
| O=C(CO)N1CC[C@@H](NCc2ccc(C#Cc3ccc(C(CO)Cc4nc[nH]c(=O)c4O)cc3)cc2)C1 (single isomer, unassigned) [Compound 45] | B (B: >1 μg/mL to ≤8.0 μg/mL) |
| COC1CN(Cc2ccc(C#Cc3ccc(C(CNC4CC4)Cc4nc[nH]c(=O)c4O)cc3)cc2)C1 (stereo not drawn) [Compound 224] | B (B: >1 μg/mL to ≤8.0 μg/mL) |
| CO[C@@H]1CCN(Cc2ccc(C#Cc3ccc(C(CNCC(C)F)Cc4nc[nH]c(=O)c4O)cc3)cc2)C1 (single isomer, unassigned) [Compound 137] | B (B: >1 μg/mL to ≤8.0 μg/mL) |
